“Also recorded” adds a separate entry of the source.
How the values were obtained:
podocyte monolayer = assay: Albumin permeability across differentiated podocyte monolayer (Transwell); assay type: cell-based, mouse; conditions: for Albumin permeability across podocyte monolayer: 1 mM; for Effect on the protective effect of adiponectin on podocyte permeability: ARA-A 1 mM pre-treatment prior to addition of adiponectin; for Permeability of albumin across a podocyte monolayer: adiponectin (globular or full length) 3 μg/ml, serum free, vs. control
Procedure: Podocyte cell culture: Conditionally immortalized mouse podocytes were kindly provided by Dr. Peter Mundel (Albert Einstein College of Medicine, Bronx, N.Y.) and were cultured as previously described (27). The cells harbor a temperature-sensitive variant of the SV40 large T antigen (tsA58) that is inducible by γ-interferon and stable at 33° C. but rapidly degraded at 37° C. (27). At 33° C., the large T antigen allows for cellular proliferation. The proliferating cells are maintained in collagen I—coated flasks in RPMI-1640 media supplemented with 10% FBS and 10 units/ml mouse recombinant γ-interferon. When the cells have reached confluence, they are passaged and allowed to differentiate at 37° C. for 8-10 days without γ-interferon in Dulbecco's modified Eagle's medium containing 5.5 mmol/l glucose and 5% FCS. For the permeability assay a modification of a previously published protocol (28) was adopted. Differentiated podocytes (0.2×10^6 podocytes/well) plated on collagen coated 24 well Transwell plates (Corning) were serum-starved ovenight when confluent. Cells were then modulated with globular adiponectin (PepROTech Inc.) with or without 1 mM adenosine 9-p-D-arabinofuranoside (ARA-A) (Sigma, St. Louis, Mo.), for 24 h. Cells were then washed twice with PBS supplemented with 1 mM MgCl2 and 1 mM CaCl2. The upper compartment was refilled with 0.25 ml RPMI 1640 alone and the lower compartment with 0.5 ml RPMI 1640 supplemented with 40 mg/ml BSA and incubated for 2 hour at 37° C. Total protein concentration in the upper compartment was determined using a Bio-Rad protein assay (Bio-Rad Laboratories, Hercules, Calif.).

[1] = tested on: Adiponectin KO (Ad−/−) mice; assay: Urine albumin/creatinine ratio in treated adiponectin KO mice; assay type: in vivo, mouse; conditions: Ad−/− mice at 4 months of age
Procedure: Adiponectin administration and animal studies: The mice were treated with 25 μg of recombinant human globular domain adiponectin (gAd; PepROTech, Rocky Hill, N.J.) subcutaneously twice daily for 10 consecutive days. The control animals were given PBS alone. 24-hour urines from each mouse were collected twice: one week before the injections and on the last day of the injections. The urine albumin and creatinine were measured with a mouse Albuwell ELISA kit and a Creatinine Companion kit (Exocell, Philadelphia, Pa.) (25,26). The mice were sacrificed five hours after the final gAd injection under anesthesia. Portions of kidney cortex were fixed in buffered formalin and embedded in paraffin. A portion of kidney cortical tissue was cut into 1 mm^3 pieces and fixed in 2.5% glutaraldehyde
(§1) Interventional animal studies: The mice were treated with 25 μg of recombinant human globular domain adiponectin gAd (PepROTech, Rocky Hill, N.J.), administered 25 μg/mouse twice a day for 10 consecutive days or full-length adiponectin (fAd) was administered using an AAV vector (AAV2/8 CMV fAd virus 4×1011 GC/mouse for 10 days). A separate group of Ad−/− mice were treated with 5-aminoimidazole-4-carboxamide-1-beta-D-ribonucleoside (AICAR) with a single i.p. dose of 300 mg/kg. The control animals were given PBS alone or control AAV. 24-hour urines from each mouse were collected before treatment and on the last day of the treatment period. The urine albumin and creatinine were measured with a mouse Albuwell ELISA kit and a Creatinine Companion kit (Exocell, Philadelphia, Pa.) (26, 25). As an index of oxidant stress timed urine collections were also analyzed for hydrogen peroxide by Amplex red assay (Invitrogen/Molecular Probes, Carlsbad, Calif.) following the manufacturer's protocol. Portions of liver, muscle and kidney was snap-frozen in liquid nitrogen for RNA isolation. An additional aliquot of normal kidney was frozen in OCT for immunofluorescent staining. […]

Ad−/− mice = assay: Urinary hydrogen peroxide (Amplex red) in Ad−/− mice; assay type: in vivo, mouse; conditions: 4 month-old Ad−/− mice
Procedure: as §1

Nox4 = Nox4 protein in cultured podocytes (immunoblot, confocal); assay type: cell-based, mouse; conditions: AICAR; podocytes grown in high glucose (HG)

Nc1ncnc2c1ncn2[C@@H]1O[C@H](CO)[C@@H](O)[C@@H]1O [ARA-A, adenosine 9-p-D-arabinofuranoside]
Albumin permeability across podocyte monolayer (podocyte monolayer; AMPK inhibitor ARA-A alone): increased permeability to albumin | Albumin permeability across podocyte monolayer (podocyte monolayer; AMPK inhibitor ARA-A alone, listed as ARA): increased | Effect on the protective effect of adiponectin on podocyte permeability (podocyte monolayer): prevented the protective effects of adiponectin on podocyte permeability; also recorded: increased permeability to albumin; also recorded: blocked protective effect of adiponectin | Effect on the protective effect of adiponectin on podocyte permeability (podocyte monolayer; listed as ARA): blocked

NC(=O)c1ncn([C@@H]2O[C@H](CO)[C@@H](O)[C@H]2O)c1N [AICAR, 5-aminoimidazole-4-carboxamide-1-beta-D-ribonucleoside, reference compound]
Albumin permeability across podocyte monolayer (podocyte monolayer; AMPK activator AICAR): decreased | Urine albumin/creatinine ratio (albuminuria) ([1]; AICAR single i.p. dose of 300 mg/kg, 300 mg/kg): restored albuminuria; also recorded: significantly decreased urine albumin/creatinine to the control values seen in WT mice | Urinary levels of hydrogen peroxide (Ad−/− mice; AICAR single i.p. dose of 300 mg/kg): reduced | Podocyte Nox4 protein (Nox4): reduced Nox4 protein levels to a similar degree as adiponectin

B1: fAd: full-length adiponectin; in mice administered using an AAV vector (AAV2/8 CMV fAd virus) (protein, listed as Homo sapiens)
chain: MLLLGAVLLLLALPGHDQETTTQGPGVLLPLPKGACTGWMAGIPGHPGHNGAPGRDGRDGTPGEKGEKGDPGLIGPKGDIGETGVPGAEGPRGFPGIQGRKGEPGEGAYVYRSAFSVGLETYVTIPNMPIRFTKIFYNQQNHYDGSTGKFHCNIPGLYYFAYHITVYMKDVKVSLFKKDKAMLFTYDQYQENNVDQASGSVLLHLEVGDQVWLQVYGEGERNGLYADNDNDSTFTGFLLYHDTN
modifications: delivered via AAV2/8 CMV vector
Permeability of albumin across a podocyte monolayer (podocyte monolayer): reduced | Permeability of albumin across a podocyte monolayer (podocyte monolayer; listed as full length adiponectin): significantly reduced | Urine albumin/creatinine ratio (albuminuria) ([1]; fAd by AAV vector, 10 days): significantly decreased urine albumin/creatinine to the control values seen in WT mice | Urinary levels of hydrogen peroxide (Ad−/− mice; fAd by AAV vector, 10 days): reduced
